Results taken from patent publication US4816444A, “Cell growth inhibitory substance” (priority 1987, dated 1989).
Values after ≈ are worked out from the molar mass of the structure shown.

Assays:
[1] = tested on: P388 lymphocytic leukemia; test: NCI murine P388 lymphocytic leukemia (PS system), in vivo
Description: Unit dosage forms of dolastatin 10 prepared according to selected compositions described in Example 1 were screened utilizing Protocol 1,200 described in Cancer Chemotherapy Reports, parts 3, Vol. 3, No. 2, September 1972, pp 9 et seq for lymphocytic leukemia P388. Dolastatin 10 provided a 69-102% life extension at 1-4 μg/Kg host body weight against the murine P388 lymphocytic leukemia.

B16 Melanoma [2] = test: NCI murine B16 melanoma, in vivo
Description: A unit dosage form of dolastatin 10, prepared according to Example 1, was challenged with B-16 murine melanoma and obtained a 42% to 138% life extension at 1.44 to 11.1 μg/Kg using the National Cancer Institute accepted protocol.

[3] = tested on: Human Mammary Xenograph MX-1; test: Human mammary xenograph to nude mouse MX-1 (life extension); assay type: in vivo
M5076 Ovary Sarcoma = test: M5076 ovary sarcoma, murine in vivo system
[4] = tested on: L1210 Lymphocytic Leukemia; test: L1210 lymphocytic leukemia, murine in vivo system
[5] = tested on: Human Melanoma Xenograph (LOX); test: NCI human melanoma xenograph to nude mouse (LOX); assay type: in vivo; details: 52 μg/kg
[6] = tested on: Human Melanoma Xenograph (LOX); test: NCI human melanoma xenograph to nude mouse (LOX); assay type: in vivo
Description: Unit dosage forms of dolastatin 10 were prepared according to Example 1 and were screened using accepted protocols of the National Cancer Institute. The preparation obtained a 17-67% cure rate at 3.25-26 μg/kg host body weight against NCI murine human melanoma xenograph.

P388 in vitro cell line = P388 in vitro cell line growth inhibition; assay type: cell-based, murine
MX-1 = MX-1 tumor regression; assay type: in vivo, human
B16 Melanoma [7] = details: 11 μg/kg; cited from earlier work

With `CC[C@H](C)[C@@H]([C@@H](CC(=O)N1CCC[C@H]1[C@H](OC)[C@@H](C)C(=O)N[C@@H](Cc1ccccc1)c1nccs1)OC)N(C)C(=O)[C@@H](NC(=O)[C@H](C(C)C)N(C)C)C(C)C` [Dolastatin 10] the T/C ([1]; 2 μg/kg) was 199, the T/C ([1]; 4 μg/kg) was 202 and the T/C ([1]; 8 μg/kg) was 161. For the same compound, the T/C ([1]; 13.5 μg/kg) was 173, the T/C ([1]; 08-27 μg/kg) was “toxic” and the T/C (B16 Melanoma [2]; 3.4 μg/kg) was 171. It also gave a T/C (B16 Melanoma [2]; 4.0 μg/kg) of 205, a T/C (B16 Melanoma [2]; 6.67 μg/kg) of 182 and a T/C (B16 Melanoma [2]; 11.11 μg/kg) of 238. For the same compound, the “T/C (life extension)” value ([3]; 6.25 μg/kg) was 178, the “T/C (life extension)” value ([3]; 13 μg/kg) was 137 and the “T/C (life extension)” value ([3]; 26 μg/kg) was “toxic”. The “T/C (life extension)” value ([3]; 52 μg/kg) was “toxic”, the T/C (M5076 Ovary Sarcoma; 3.25 μg/kg) was 151 and the T/C (M5076 Ovary Sarcoma; 6.5 μg/kg) was 142. The T/C (M5076 Ovary Sarcoma; 13 μg/kg) was 166, the T/C (M5076 Ovary Sarcoma; 24 μg/kg) was “toxic” and the T/C (M5076 Ovary Sarcoma; 26 μg/kg) was “toxic”. It also gave a T/C ([4]; 1.63 μg/kg) of 120, a T/C ([4]; 3.25 μg/kg) of 139 and a T/C ([4]; 6.5 μg/kg) of 135. The T/C ([4]; 13 μg/kg) was 152, the T/C ([4]; 26 μg/kg) was “toxic” and the T/C [5] was “toxic”. It also gave a cures [5] of 66.6%, a T/C ([6]; 3.25 μg/kg) of 170 and a T/C ([6]; 6.5 μg/kg) of 206. The cures ([6]; 6.5 μg/kg) was 16.6%, the T/C ([6]; 13 μg/kg) was 301 and the cures ([6]; 13 μg/kg) was 33.3%. For the same compound, the T/C ([6]; 26 μg/kg) was 301, the cures ([6]; 26 μg/kg) was 50% and the “curative response / cure rate” value ([6]; 3.25-26 μg/kg) was 17-67%. The ED50 (P388 in vitro cell line) was 0.046 ng/mL (≈ 0.0586 nM), the “MX-1 Tumor Regression, T/C” value (MX-1; 6.25 μg/kg) was 69 and the “MX-1 Tumor Regression, T/C” value (MX-1; 13 μg/kg) was 61. For the same compound, the “MX-1 Tumor Regression, T/C” value (MX-1; 26 μg/kg) was 50 and the “MX-1 Tumor Regression, T/C” value (MX-1; 52 μg/kg) was 14.

For dolastatin 1, the cure rate (B16 Melanoma [7]) is listed as 33%.
